Here are results for 35 molecules from patent US9309212B2, “Compositions and methods for modulating the activity of Epstein-Barr nuclear antigen 1” (The Wistar Institute, priority 2011, dated 2016).

To fix the notation:
B1: EBNA1 BS Hairpin (opl 3016 / opl 4624) (structured_DNA)
DNA: GGGTAGCATATGCTATCTAGATAGCATATGCTACCC

Some results are limits rather than exact numbers.

Sequence of EBNA1 DNA binding domain (P03211 454-607): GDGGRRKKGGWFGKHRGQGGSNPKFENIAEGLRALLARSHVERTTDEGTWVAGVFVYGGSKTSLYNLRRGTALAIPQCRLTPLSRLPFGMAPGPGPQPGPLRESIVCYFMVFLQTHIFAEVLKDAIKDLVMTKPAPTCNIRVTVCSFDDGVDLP

The target of one data set is T1, EBNA1 (Epstein-Barr virus, UniProt P03211).
T1 construct: expressed in transfected cells; host or cells: 293T cells
T1 sequence (P03211 whole entry): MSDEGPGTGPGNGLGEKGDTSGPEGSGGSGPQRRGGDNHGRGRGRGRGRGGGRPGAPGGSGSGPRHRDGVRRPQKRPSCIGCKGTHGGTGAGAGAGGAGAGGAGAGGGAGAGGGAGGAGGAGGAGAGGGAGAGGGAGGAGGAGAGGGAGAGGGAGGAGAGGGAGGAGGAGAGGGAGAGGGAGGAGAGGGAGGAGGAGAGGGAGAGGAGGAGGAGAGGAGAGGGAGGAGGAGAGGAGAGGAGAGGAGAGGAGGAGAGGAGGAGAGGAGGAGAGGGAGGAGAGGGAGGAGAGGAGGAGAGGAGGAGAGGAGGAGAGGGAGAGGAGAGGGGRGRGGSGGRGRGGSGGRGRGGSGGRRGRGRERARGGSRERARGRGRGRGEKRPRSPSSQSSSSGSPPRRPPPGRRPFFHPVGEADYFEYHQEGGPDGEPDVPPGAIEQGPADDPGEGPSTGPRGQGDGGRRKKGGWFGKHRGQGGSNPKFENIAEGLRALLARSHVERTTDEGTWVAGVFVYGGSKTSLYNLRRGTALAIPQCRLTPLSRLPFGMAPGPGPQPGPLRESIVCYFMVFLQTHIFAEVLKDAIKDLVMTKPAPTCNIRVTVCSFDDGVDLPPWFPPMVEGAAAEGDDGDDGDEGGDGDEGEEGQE
Nature of the data set: cell-based assay (EBNA1 transcription derepression assay, Qp-luciferase reporter in 293T cells). The settings on record: final concentration range 125 μM-2 nM, 125000 nM = not active. The method, then: EBNA1 Transcription Derepression Assay.
293T cells were seeded in 10-cm plates in DMEM media with 10% FBS. Following a 18-hour incubation at 37° C. to allow cells to adhere, cells at 50-70% confluence were transfected using 40 μL LIPOFECTAMINE (INVITROGEN) per plate. The cells were transfected with a 4 μg Qp-luciferase reporter plasmid (N1852) and 0.125 μg EBNA1 expression plasmid (N803) or 4 μg Qp-luciferase reporter plasmid (N1852) and 0.125 μg control plasmid (N799) (no EBNA) per plate. After 24 hours, the cells were harvested without trypsin, centrifuged 1200 RPM for 5 minutes and resuspended in DMEM media with 10% FBS at a concentration 100,000 cells per milliliter. Forty μL of this solution […] was dispensed to each well of the white plate using a BIOTEK MICROFLO Select Dispenser. Test compounds were added to achieve a final concentration range of 125 μM-2 nM, as described above. Cells were incubated at 37° C. for 48 hours, harvested and analyzed for luciferase activity using the PROMEGA STEADY-GLO luciferase system and read using a PERKIN ELMER 2104 Multilabel Reader.
Compounds were screened for activity in the cell-based assay disclosed herein.
(In general: A reporter such as luciferase makes a cellular process visible.)
Turning to `O=C(Oc1ccc(Cl)cc1)c1ccc2occc2c1` [VKE01441], the IC50 amounted to 9.06 µM.

In turn, `CC(C)(C)c1ccc(OC(=O)c2ccc3occc3c2)cc1` [VKE01442] gave an IC50 of 2.63 µM.

Turning to `O=C(Cc1ccc(Cl)cc1Cl)Oc1ccc2occ([N+](=O)[O-])c2c1` [VKE01443], the IC50 was greater than 125 µM.

Take `O=C(Oc1ccc2occ([N+](=O)[O-])c2c1)c1cccnc1` [VKE01444]: the IC50 is greater than 125 µM.

`O=C(Oc1ccc2occ([N+](=O)[O-])c2c1)c1ccncn1` [VKE01445]: the IC50 was greater than 125 µM.

Turning to `O=C(Oc1ccc2occ([N+](=O)[O-])c2c1)c1ncccc1C(F)(F)F` [VKE01446], the IC50 was greater than 125 µM.

As for `O=C(Oc1ccc2occ([N+](=O)[O-])c2c1)c1ccno1` [VKE01447], the IC50 was greater than 125 µM.

Take `O=C(Oc1ccc2occ([N+](=O)[O-])c2c1)c1ccc(N2CCOCC2)cc1` [VKE01448]: the IC50 was determined as 30.6 µM.

Turning to `O=C(Oc1ccc2occ([N+](=O)[O-])c2c1)c1ccccc1C(F)(F)F` [VKE01449], the half-maximal inhibitory concentration (IC50) is greater than 125 µM.

For `CCc1ccccc1C(=O)Oc1ccc2occ([N+](=O)[O-])c2c1` [VKE01450], the IC50 amounted to 9.02 µM.

The molecule `O=C(Oc1ccc2occ([N+](=O)[O-])c2c1)c1ccc(F)cc1Cl` [VKE01451] returned an IC50 of 3.28 µM. This IC50 lies about 2.8-fold lower than the previous one.

The molecule `Cc1cc(C)cc(CC(=O)Oc2ccc3occ([N+](=O)[O-])c3c2)c1` [VKE01452] came in with an IC50 greater than 125 µM.

For `CCCCc1ccc(C(=O)Oc2ccc3occ([N+](=O)[O-])c3c2)cc1` [VKE01453], the IC50 turned out to be 1.24 µM.

On to `O=[N+]([O-])c1coc2ccc(OCc3ccc(Cl)cc3)cc12` [VKE01454], for which half-maximal inhibition (IC50) required 9.78 µM.

In the case of `O=[N+]([O-])c1coc2ccc(OCc3ccccc3)cc12` [VKE01455], the IC50 was determined as 27.2 µM.

`O=[N+]([O-])c1coc2ccc(OCc3ccc(OC(F)(F)F)cc3)cc12` [VKE01456] had an IC50 of 14 µM.

`O=C(Nc1ccc2occc2c1)c1ccc(F)cc1Cl` [VKE01457] yielded an IC50 of 0.0189 µM.

Molecule `O=C(Nc1ccc2occc2c1)c1ccc(C(F)(F)F)cc1` [VKE01458] yielded an IC50 of 0.00476 µM.

`O=C(Nc1ccc2occc2c1)c1ccccc1C(F)(F)F` [VKE01459]: the IC50 stood at 6.52 µM.

Molecule `CCCCc1ccc(C(=O)Nc2ccc3occc3c2)cc1` [VKE01460] had a half-inhibitory concentration (IC50) of 0.0123 µM.

Molecule `CCc1ccccc1C(=O)Nc1ccc2occc2c1` [VKE01461] came in with an IC50 of 1.02 µM.

The molecule `O=C(Nc1ccc2occc2c1)c1ccc(N2CCOCC2)cc1` [VKE01462] gave an IC50 of 0.298 µM.

The molecule `O=C(Nc1ccc2occc2c1)c1cccnc1` [VKE01463] showed an IC50 of 1.26 µM.

For `O=C(Nc1ccc2occc2c1)c1ncccc1C(F)(F)F` [VKE01464], it took 1.09 µM to reach half-maximal inhibition (IC50).

In turn, `O=C(Nc1ccc2occc2c1)c1ccncn1` [VKE01465] registered an IC50 of 1.66 µM. Against the preceding molecule, the IC50 is about 1.5-fold higher.

With `O=C(Nc1ccc2occc2c1)c1ccno1` [VKE01466], half-maximal inhibition (IC50) required 83.8 µM.

On to `O=C(Nc1ccccc1F)c1ccc2occc2c1` [VKE01467], for which the concentration for half-maximal inhibition (IC50) amounted to 0.674 µM.

In turn, `O=C(Nc1cccc(Cl)c1)c1ccc2occc2c1` [VKE01468] came in with an IC50 of 0.813 µM.

`CC(C)(C)c1ccc(NC(=O)c2ccc3occc3c2)cc1` [VKE01469] displayed an IC50 of 0.0627 µM. This IC50 lies about 13-fold lower than the previous one.

`Cc1cc(NC(=O)c2ccc3occc3c2)ccc1Cl` [VKE01470]: the half-maximal inhibitory concentration (IC50) amounted to 0.042 µM. This IC50 and that of the molecule before are within 1.5-fold of each other.

The molecule `O=C(Nc1ccc(F)c(F)c1)c1ccc2occc2c1` [VKE01471] gave an IC50 of 0.847 µM. Against the preceding molecule, the IC50 is about 20-fold higher.

Take `O=C(Nc1ccccn1)c1ccc2occc2c1` [VKE01472]: the IC50 turned out to be 0.152 µM.

In the case of `O=C(Nc1ccncc1)c1ccc2occc2c1` [VKE01473], the IC50 is 20.8 µM.

Molecule `Cc1csc(NC(=O)c2ccc3occc3c2)n1` [VKE01474] registered an IC50 of 0.0602 µM.

Another data set addresses EBNA1 DNA binding domain (Human herpesvirus 4, UniProt P03211 SEQ:454-607). Nature of the data set: FP; 200 mM NaCl, 20 mM Tris-Cl pH 7.4, 1 mM DTT, 10 ug/mL BSA, 25 C; 5 nM probe; probe performed significantly better in FP than in EMSA comparison. The settings on record: tags: hexa-histidine, E. coli expressed; chain copies: 2; label: CY5 (opl 3016) or FITC (opl 4624); hairpin.
B1: the binding result is “binds”.

As usually defined, the IC50 is the point on the concentration scale where inhibition reaches its midpoint.
